Calls of active or inactive are those of the source.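 Rule for the calls: active = a concentration killing half the fathead minnows in the acute test was determined; inconclusive = some fish died but not half at top dose; inactive = no fish died even at top dose.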
Tested on: Fathead minnow (Pimephales promelas) acute toxicity, lethality
Test: DSSTox (EPAFHM) EPA Fathead Minnow Acute Toxicity
Text: The EPA Fathead Minnow Acute Toxicity database was generated by the U.S. EPA Mid-Continental Ecology Division (MED) for the purpose of developing an expert system to predict acute toxicity from chemical structure based on mode of action considerations. […] A second valuable aspect of this database, from a QSAR modeling perspective, is the inclusion of general mode-of-action (MOA) classifications of acute toxicity response for individual chemicals derived from study results. MOA assignments are biologically based classifications, allowing definition of chemical similarity based upon biological activity instead of organic chemistry functional class as most commonly employed in QSAR study. MOA classifications should strengthen the scientific basis for construction of individual QSARs. However, it is cautioned that the broad MOA categorizations should not be construed to represent a single molecular mechanism; for example, CNS seizure agents and respiratory inhibitors are known to act through a variety of receptors. The EPA Fathead Minnow database and results have been used by EPA MED to build components of the ASTER prediction system, which incorporates MOA-based QSARs for the prediction of aquatic toxicity of environmental and industrial chemicals. Briefly, MOA classifications for individual chemicals, derived from experiments and provided in the EPA Fathead Minnow database, were used to derive substructural rules for assigning a new chemical to an MOA category based solely on chemical structure. Once a new chemical is assigned to an MOA category on this basis, the logP-based QSAR for that MOA category is applied.
The DSSTox EPAFHM database (available from the DSSTox Source URL) includes information pertaining to organic chemical class assignments (ChemClass_FHM), acute toxicity in fathead minnow (LC50_mg), dose-response assessments (LC50_Ratio, ExcessToxicityIndex), behavioral assessments (FishBehaviorTest), joint toxicity MOA evaluations of mixtures (MOA_MixtureTest), and additional MOA evaluation of fish acute toxicity syndrome (FishAcuteToxSyndrome) in rainbow trout. All of these indicators, to the extent available, were considered in the determination of MOA and, additionally, were used to determine a level of confidence in the MOA assignment for each chemical (MOA_Confidence). […] Activity Score is mapping of LOG10 (1/LC50_mmol) activity values spanning activity range [MIN, MAX] onto Integer 1-100 Activity range, where 100 is highest potency and 1 is lowest. If Activity Outcome is "active": Activity Score = 100 * INTEGER[(log10(1/ LC50_mmol) - MIN)/([…])].

| SMILES | Potency [µM] | outcome |
| --- | --- | --- |
| Nc1ccc(F)cc1C(F)(F)F | 165 | – |
| OCCNCCO | 44800 | – |
| O=Cc1ccccc1[N+](=O)[O-] | 95.3 | – |
| CN(C)c1ccc(/C=C/C=O)cc1 | 36.7 | – |
| c1ccc2occc2c1 | 119 | – |
| CCSCCSCC | 401 | – |
| CN(C)c1ccc(C=O)cc1 | 306 | – |
| CCCCCCCCC(=O)O | 657 | – |
| ClCCCCCCl | 179 | – |
| Cc1ccc(N)cc1 | 1490 | – |
| NC(=O)c1ccccc1 | 5460 | – |
| C/C=C/C=C/C | 243 | – |
| OC(C(F)(F)F)C(F)(F)F | 1450 | – |
| Clc1cc(Cl)c(SSc2cc(Cl)c(Cl)cc2Cl)cc1Cl | – | inactive; moa not determined either due to lack of toxicity at saturation or late test res |
| CCCCOC(C)=O | 155 | – |
| O[C@@H]1CCCC[C@H]1c1ccccc1 | 252 | – |
| CCCC=O | 204 | – |
| CCN1C(=O)CC(=O)N(CC)C1=S | 22500 | – |
| CCCCCCCBr | 8.21 | – |
| CCC(C)C(C)C=O (stereo not drawn) | 140 | – |
| CCCCCCCCCc1ccc(O)cc1 | 0.635 | – |
| CCNCC | 11700 | – |
| CCCOC(C)=O | 587 | – |
| CCCCCO | 5360 | – |
| CC(C)c1cccc(C(C)C)c1N | 86.3 | – |

| SMILES | Potency [µM] | outcome |
| --- | --- | --- |
| CCCCCCCCCCCCN | 0.556 | – |
| COCCCNCc1cc(OC)c(OC)c(OC)c1 | 505 | – |
| C=CCOC(=O)C(=C)C | 7.85 | – |
| Cc1c[nH]c2ccccc12 | 67.4 | – |
| CC(N)CN (stereo not drawn) | 13600 | – |
| ClC(Cl)=C(Cl)c1c(Cl)c(Cl)c(Cl)c(Cl)c1Cl | – | inactive; moa not determined either due to lack of toxicity at saturation or late test res |
| CN1CCNCC1 | 23000 | – |
| CC(C)c1ccccc1 | 52.6 | – |
| CC/C(C)=N/O | 9680 | – |
| CCc1cccc(CC)c1 | 30.9 | – |
| NCCN | 3660 | – |
| CCCCCCCCC#N | 37.7 | – |
| Nc1c(F)c(F)c(F)c(F)c1F | 203 | – |
| Cn1c(=O)c2c(ncn2C)n(C)c1=O | 778 | – |
| CCOC(=O)c1ccccc1O | 122 | – |
| Oc1ccc(N=Nc2ccccc2)cc1 | 6 | – |
| CCc1ccccc1 | 98.9 | – |
| Cc1ccc(O)c(C)c1 | 136 | – |
| CCCCO | 23300 | – |
| CNc1ccccc1 | 933 | – |
| O=S(c1ccc(Cl)cc1)c1ccc(Cl)cc1 | – | inactive; moa not determined either due to lack of toxicity at saturation or late test res |
| O=Cc1cc([N+](=O)[O-])ccc1Cl | 20.9 | – |
| CCOC(=O)C(Cl)C(=O)OCC | 4.88 | – |
| c1ccc(Nc2ccccc2)cc1 | 22.4 | – |
| c1ccc(Oc2ccccc2)cc1 | 23.5 | – |

| SMILES | Potency [µM] | outcome |
| --- | --- | --- |
| O=Cc1cc(Br)ccc1O | 6.46 | – |
| NCCO | 33900 | – |
| Oc1ccccc1 | 347 | – |
| CCCCCN | 2030 | – |
| CCCCOC(=O)c1cccc(C(=O)OCCCC)c1 | 3.23 | – |
| Cc1cccc([N+](=O)[O-])c1 | 187 | – |
| Cc1ccc(N)c(Cl)c1 | 254 | – |
| Cc1cocn1 | 16700 | – |
| C=C(C)[C@H]1Cc2c(ccc3c2O[C@@H]2COc4cc(OC)c(OC)cc4[C@@H]2C3=O)O1 | 0.0132 | – |
| CCCCCCCCOC(=O)c1ccc(C(=O)OCCCCCCCC)cc1 | – | inactive; moa not determined either due to lack of toxicity at saturation or late test res |
| CCCCCCCCc1ccc(N)cc1 | 0.584 | – |
| CNC(=O)Oc1ccccc1OC(C)C | 42.1 | – |
| CCN(CC)C1CCCCC1 | 138 | – |
| C#CC(O)(c1ccccc1)c1ccccc1 | 53.3 | – |
| CCCCC=O | 150 | – |
| COc1cccc(OC)c1C | 133 | – |
| CC/C=C/CCO | 2710 | – |
| CCCCCCC(C)=O | 281 | – |
| COC(=O)c1cc(Cl)ccc1Cl | 68.3 | – |
| CCCCCCCCCCCCc1ccc(N)cc1 | – | inactive; moa not determined either due to lack of toxicity at saturation or late test res |
| CCCCCCOC(C)=O | 30.5 | – |
| CCCCCCCC(C)=O | 107 | – |
| COc1ccc(C(C)=O)c(O)c1 | 418 | – |

Reference: PubChem BioAssay AID1188 (EPA DSSTox, 2008)
